Results taken from patent publication US12679843B2, “Pyrrolopyrimidine amines as complement inhibitors” (BioCryst Pharmaceuticals, Inc., priority 2020, dated 2026).

biological target: Factor D (Homo sapiens, UniProt P00746); test: Factor D esterolytic assay (Z-Lys-SBzl thioester substrate, DTNB, 405 nm); type: biochemical; settings: substrate Z-Lys-SBzl 1.29 mM, 100 mM HEPES, 500 mM NaCl, pH 7.5, 10% DMSO, tested a minimum of three times
Outline: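 Human Factor D hydrolysis of Z-Lys-SBzl (1.29 mM) monitored at 405 nm via DTNB thiol detection for 600 s, 690 nm background subtracted. Buffer 100 mM HEPES, 500 mM NaCl, pH 7.5, 10% DMSO; substrate added immediately or after room-temperature preincubation. IC50 from percent inhibition of rate, at least three tests.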

Factor D, sequence (P00746 26-253): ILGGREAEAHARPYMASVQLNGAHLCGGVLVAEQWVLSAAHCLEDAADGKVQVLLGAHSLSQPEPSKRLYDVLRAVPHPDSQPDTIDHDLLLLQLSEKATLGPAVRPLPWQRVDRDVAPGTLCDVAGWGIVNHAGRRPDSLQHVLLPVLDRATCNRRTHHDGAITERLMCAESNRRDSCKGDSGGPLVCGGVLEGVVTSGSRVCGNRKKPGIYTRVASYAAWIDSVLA

COC(=O)c1cc(C)c2c(c1)c1c(N)ncnc1n2CC(=O)N1[C@@H]2C[C@@H]2C[C@H]1C(=O)Nc1cccc(Br)n1 [Compound 217a, methyl 4-amino-9-(2-((1R,3S,5R)-3-((6-bromopyridin-2-yl)carbamoyl)-2-azabicyclo[3.1.0]hexan-2-yl)-2-oxoethyl)-8-methyl-9H-pyrimido[4,5-b]indole-6-carboxylate] and Cc1cccc2c3c(N)ncnc3n(CC(=O)N3[C@@H]4C[C@@H]4C[C@H]3C(=O)Nc3cccc(Br)n3)c12 [Compound 30f, (1R,3S,5R)-2-(2-(4-amino-8-methyl-9H-pyrimido[4,5-b]indol-9-yl)acetyl)-N-(6-bromopyridin-2-yl)-2-azabicyclo[3.1.0]hexane-3-carboxamide] cannot be ordered by IC50: < 100 nM for the first, < 100 nM for the second.

First: Nc1ncnc2c1ncn2CC(=O)N1[C@@H]2C[C@@H]2C[C@H]1C(=O)NCc1ccccc1 [Compound 101b, (1R,3S,5R)-2-(2-(6-amino-9H-purin-9-yl)acetyl)-N-benzyl-2-azabicyclo[3.1.0]hexane-3-carboxamide]
Second: Nc1ncnc2c1ncn2CC(=O)N1[C@@H]2C[C@@H]2C[C@H]1C(=O)OCc1ccccc1 [Compound 94b, (1R,3S,5R)-benzyl 2-(2-(6-amino-9H-purin-9-yl)acetyl)-2-azabicyclo[3.1.0]hexane-3-carboxylate]
The IC50 of the first is lower: 100 to 1000 nM for the first, > 1000 nM for the second.

C[C@@]12C[C@@H](C(=O)Nc3cccc(Br)n3)N(C(=O)Cn3ccc4c(N)ncnc43)[C@@H]1C2 [Compound 73a, (1R,3S,5R)-2-(2-(4-amino-7H-pyrrolo[2,3-d]pyrimidin-7-yl)acetyl)-N-(6-bromopyridin-2-yl)-5-methyl-2-azabicyclo[3.1.0]hexane-3-carboxamide] and C[C@@]12C[C@@H](C(=O)Nc3cccc(Br)n3)N(C(=O)Cn3c4ccncc4c4c(N)ncnc43)[C@@H]1C2 [Compound 181a, (1R,3S,5R)-2-(2-(4-amino-9H-pyrido[3′,4′:4,5]pyrrolo[2,3-d]pyrimidin-9-yl)acetyl)-N-(6-bromopyridin-2-yl)-5-methyl-2-azabicyclo[3.1.0]hexane-3-carboxamide] cannot be ordered by IC50: < 100 nM for the first, < 100 nM for the second.

COc1cc(OC)c2c(c1)c1c(N)ncnc1n2CC(=O)N1[C@H](C(=O)Nc2cccc(Br)n2)C[C@@]2(C)C[C@@H]12 [Compound 279a, (1R,3S,5R)-2-(2-(4-amino-6,8-dimethoxy-9H-pyrimido[4,5-b]indol-9-yl)acetyl)-N-(6-bromopyridin-2-yl)-5-methyl-2-azabicyclo[3.1.0]hexane-3-carboxamide] and COc1cccc2c1c1c(N)ncnc1n2CC(=O)N1[C@H](C(=O)Nc2cccc(Br)n2)C[C@@]2(C)C[C@@H]12 [Compound 172a, (1R,3S,5R)-2-(2-(4-amino-5-methoxy-9H-pyrimido[4,5-b]indol-9-yl)acetyl)-N-(6-bromopyridin-2-yl)-5-methyl-2-azabicyclo[3.1.0]hexane-3-carboxamide] cannot be ordered by IC50: < 100 nM for the first, < 100 nM for the second.

C[C@@]12C[C@@H](C(=O)Nc3cccc(Br)n3)N(C(=O)Cn3c4ncnc(N)c4c4cccc(C(=O)O)c43)[C@@H]1C2 [Compound 232a, 4-amino-9-(2-((1R,3S,5R)-3-((6-bromopyridin-2-yl)carbamoyl)-5-methyl-2-azabicyclo[3.1.0]hexan-2-yl)-2-oxoethyl)-9H-pyrimido[4,5-b]indole-8-carboxylic acid] and C[C@@]12C[C@@H](C(=O)Nc3cccc(Br)n3)N(C(=O)Cn3c4ncnc(N)c4c4cccc(Br)c43)[C@@H]1C2 [Compound 186a, (1R,3S,5R)-2-(2-(4-amino-8-bromo-9H-pyrimido[4,5-b]indol-9-yl)acetyl)-N-(6-bromopyridin-2-yl)-5-methyl-2-azabicyclo[3.1.0]hexane-3-carboxamide] cannot be ordered by IC50: < 100 nM for the first, < 100 nM for the second.

First: Cc1cc(-c2cccnc2C(F)(F)F)cc2c3c(N)ncnc3n(CC(=O)N3[C@H](C(=O)Nc4cccc(Br)n4)C[C@@]4(C)C[C@@H]34)c12 [Compound 358c, (1R,3S,5R)-2-(2-(4-amino-8-methyl-6-(2-(trifluoromethyl)pyridin-3-yl)-9H-pyrimido[4,5-b]indol-9-yl)acetyl)-N-(6-bromopyridin-2-yl)-5-methyl-2-azabicyclo[3.1.0]hexane-3-carboxamide]
Second: Cc1cc(-c2ccoc2)cc2c3c(N)ncnc3n(CC(=O)N3[C@@H]4C[C@@H]4C[C@H]3C(=O)Nc3cccc(Br)n3)c12 [Compound 352c, (1R,3S,5R)-2-(2-(4-amino-6-(furan-3-yl)-8-methyl-9H-pyrimido[4,5-b]indol-9-yl)acetyl)-N-(6-bromopyridin-2-yl)-2-azabicyclo[3.1.0]hexane-3-carboxamide]
The IC50 of the first is higher: 100 to 1000 nM for the first, < 100 nM for the second. The second is the more potent here.

Nc1ncnc2c1c1cc(C(F)(F)F)ccc1n2CC(=O)N1CCS[C@H]1C(=O)Nc1cccc(Br)n1 [Compound 171b, (S)-3-(2-(4-amino-6-(trifluoromethyl)-9H-pyrimido[4,5-b]indol-9-yl)acetyl)-N-(6-bromopyridin-2-yl)thiazolidine-2-carboxamide] and Nc1ncnc2c1c1cc(C(F)(F)F)ccc1n2CC(=O)N1[C@@H]2C[C@@H]2C[C@H]1C(=O)Nc1cccc(Br)n1 [Compound 27a, (1R,3S,5R)-2-(2-(4-amino-6-(trifluoromethyl)-9H-pyrimido[4,5-b]indol-9-yl)acetyl)-N-(6-bromopyridin-2-yl)-2-azabicyclo[3.1.0]hexane-3-carboxamide] cannot be ordered by IC50: < 100 nM for the first, < 100 nM for the second.

CNC(=O)Nc1ccc2c(c1)c1c(N)ncnc1n2CC(=O)N1[C@@H]2C[C@@H]2C[C@H]1C(=O)Nc1cccc(Br)n1 [Compound 297d, (1R,3S,5R)-2-(2-(4-amino-6-(3-methylureido)-9H-pyrimido[4,5-b]indol-9-yl)acetyl)-N-(6-bromopyridin-2-yl)-2-azabicyclo[3.1.0]hexane-3-carboxamide] and Nc1ncnc2c1c1ccc(C(=O)O)cc1n2CC(=O)N1[C@@H]2C[C@@H]2C[C@H]1C(=O)Nc1cccc(Br)n1 [Compound 43a, 4-amino-9-(2-((1R,3S,5R)-3-((6-bromopyridin-2-yl)carbamoyl)-2-azabicyclo[3.1.0]hexan-2-yl)-2-oxoethyl)-9H-pyrimido[4,5-b]indole-7-carboxylic acid] cannot be ordered by IC50: < 100 nM for the first, < 100 nM for the second.

Nc1ncnc2c1c1ccc(Br)cc1n2CC(=O)N1[C@@H]2C[C@@H]2C[C@H]1C(=O)Nc1cccc(Br)n1 [Compound 52f, (1R,3S,5R)-2-(2-(4-amino-7-bromo-9H-pyrimido[4,5-b]indol-9-yl)acetyl)-N-(6-bromopyridin-2-yl)-2-azabicyclo[3.1.0]hexane-3-carboxamide] and Cc1cc2c3c(N)ncnc3n(CC(=O)N3[C@@H]4C[C@@H]4C[C@H]3C(=O)Nc3cccc(Br)n3)c2cc1F [Compound 384g, (1R,3S,5R)-2-(2-(4-amino-7-fluoro-6-methyl-9H-pyrimido[4,5-b]indol-9-yl)acetyl)-N-(6-bromopyridin-2-yl)-2-azabicyclo[3.1.0]hexane-3-carboxamide] cannot be ordered by IC50: < 100 nM for the first, < 100 nM for the second.

Compared with Cc1ccc(Br)nc1NC(=O)[C@@H]1C[C@H]2C[C@H]2N1C(=O)Cc1ccc2c(N)ncnn12 [Compound 2d, (1R,3S,5R)-2-(2-(4-aminopyrrolo[2,1-f][1,2,4]triazin-7-yl)acetyl)-N-(6-bromo-3-methylpyridin-2-yl)-2-azabicyclo[3.1.0]hexane-3-carboxamide], Nc1ncnn2c(CC(=O)N3[C@@H]4C[C@@H]4C[C@H]3C(=O)Nc3cccc(Br)n3)ccc12 [Compound 70a, (1R,3S,5R)-2-(2-(4-aminopyrrolo[2,1-f][1,2,4]triazin-7-yl)acetyl)-N-(6-bromopyridin-2-yl)-2-azabicyclo[3.1.0]hexane-3-carboxamide] is lower in IC50: > 1000 nM for the first, 100 to 1000 nM for the second. The second is the more potent here.

First: C[C@H](NC(=O)[C@@H]1C[C@H]2C[C@H]2N1C(=O)Cn1ccc2c(N)ncnc21)c1cccc(Cl)c1F [Compound 86b, (1R,3S,5R)-2-(2-(4-amino-7H-pyrrolo[2,3-d]pyrimidin-7-yl)acetyl)-N—((S)-1-(3-chloro-2-fluorophenyl)ethyl)-2-azabicyclo[3.1.0]hexane-3-carboxamide]
Second: Cc1cc2c(cc1F)c1c(N)ncnc1n2CC(=O)N1[C@@H]2C[C@@H]2C[C@H]1C(=O)Nc1cccc(Br)n1 [Compound 381g, (1R,3S,5R)-2-(2-(4-amino-6-fluoro-7-methyl-9H-pyrimido[4,5-b]indol-9-yl)acetyl)-N-(6-bromopyridin-2-yl)-2-azabicyclo[3.1.0]hexane-3-carboxamide]
The IC50 of the first is higher: 100 to 1000 nM for the first, < 100 nM for the second. The second is the more potent here.

Nc1ncnc2c1ncn2CC(=O)N1[C@@H]2C[C@@H]2C[C@H]1C(=O)Nc1cccc(OC(F)(F)F)c1 [Compound 107b, (1R,3S,5R)-2-(2-(6-amino-9H-purin-9-yl)acetyl)-N-(3-(trifluoromethoxy)phenyl)-2-azabicyclo[3.1.0]hexane-3-carboxamide] and Nc1ncnc2c1ncn2CC(=O)N1CC2(CC2)C[C@H]1C(=O)NCc1cccc(Cl)c1F [Compound 120c, (S)-5-(2-(6-amino-9H-purin-9-yl)acetyl)-N-(3-chloro-2-fluorobenzyl)-5-azaspiro[2.4]heptane-6-carboxamide] cannot be ordered by IC50: > 1000 nM for the first, > 1000 nM for the second.

Cc1cc(F)c(Br)nc1NC(=O)[C@@H]1C[C@@H](F)CN1C(=O)Cn1c2ncnc(N)c2c2cc(C(F)(F)F)cc(C)c21 [Compound 366c, (2S,4R)-1-(2-(4-amino-8-methyl-6-(trifluoromethyl)-9H-pyrimido[4,5-b]indol-9-yl)acetyl)-N-(6-bromo-5-fluoro-3-methylpyridin-2-yl)-4-fluoropyrrolidine-2-carboxamide] and Cc1ccccc1-c1ccc2c(c1)c1c(N)ncnc1n2CC(=O)N1[C@@H]2C[C@@H]2C[C@H]1C(=O)Nc1cccc(Br)n1 [Compound 197c, (1R,3S,5R)-2-(2-(4-amino-6-(o-tolyl)-9H-pyrimido[4,5-b]indol-9-yl)acetyl)-N-(6-bromopyridin-2-yl)-2-azabicyclo[3.1.0]hexane-3-carboxamide] cannot be ordered by IC50: < 100 nM for the first, < 100 nM for the second.
